Experimental data reported in US20030118983A1, “Rapid screening procedure for inflammation mediators” (priority 2000, published 2003).
Where “and” joins values, the source holds several entries; their conditions need not be identical. Equal values may be shown once.

Experiments:
[1] = system: MNCs; assay: Intracellular oxidants (DCF) in MNCs activated with cytokine cocktail and hemoglobin; assay type: cell-based, human; conditions: for dampening effect on oxidant production: cytokine and hemoglobin activation, 10 μM steroid
Description: (§1) PMNs and MNCs were harvested from blood via centrifugation with equal volumes of Polymorphprep, GIBCO (Grand Island, N.Y.) at 550×g for 35 minutes at 20° C. […] Replicate experiments were conducted with three to five donors from a pool of six consented male adults.
(§2) PMNs (10,000,000/ml) and MNCs (20,000,000/ml) were loaded with 2,7-dichlorodihydrofluorescein-diacetate (DCFH-DA) (2 μM) (Molecular Probes; Eugene Oreg.) in HBSS for 30 minutes at 37° C. in a water bath. Non fluorescent DCFH is oxidized to fluorescent DCF by a variety of oxidants. The approach is sensitive, reproducible, and capable of measuring wide concentration range of intracellular oxidants. […] Treated PMNs or MNCs were incubated for 1 or 5 h in HBSS amended with physiological concentrations of Ca^2+ (1.5 mM), Mg^2+ (900 μM), glutamine (1.0 mM); GIBCO; Grand Island, N.Y.), arginine (100 μM), amino acids (1×MEM)(GIBCO; Grand Island, N.Y.), and tetrahydrobiopterin (1.0 μM). Flow cytometric analyses were performed with an argon laser (488 nm) and emission light measured behind a filter transmitting 530/30 nm light on a FACCalibur, Becton Dickinson (San Jose, Calif.) with CELLQuest data acquisition and analysis software. PMNs or MNCs were gated by forward- and side-scatter. For each sample, 10,000 PMNs or MNCs were collected.
(§3) Statistical Analyses Intracellular oxidants in activated MNCs or PMNs treated with the three highest steroid concentrations or the L-NMMA treatment were compared to untreated activated MNCs or PMNs by Bonferroni corrected t-test.

[2] = system: PMNs; assay: Intracellular oxidants (DCF) in PMNs activated with cytokine cocktail and hemoglobin; assay type: cell-based, human; conditions: for effect on oxidants in PMNs: cytokine and hemoglobin activated PMNs
Description: as §1, §2, §3

[3] = Organochlorine insecticide levels in serum of burn patients; assay type: in vivo, human; conditions: for mean peak serum levels: nonsurviving burn patients; for mean peak serum levels / mean peak serum levels higher than in surviving patients: PBD5; for mean peak serum levels higher than in surviving patients: nonsurviving patients
Description: Patients and Subjects. Analyses of xenoestrogens in archived serum were performed on samples from seven nonsurviving males and seven age- and burn-size matched surviving male burn patients admitted between 1991 and 1994 to the United States Army Institute of Surgical Research burn care facility. The criteria for selection of subjects were age (approximately 40-70 years), total burn surface area (≧25%), postburn survival (≧7 days) and lack of preburn disease. Inhalation injury was present in 6 of 7 surviving and 5 of 7 nonsurviving patients. In the non-surviving group, two patients died between postburn day (PBD) 7 and 11. Age-matched healthy males (n=12) were used as control subjects.
Levels of insecticides in serum of burn patients on postburn day (PBD) 1, 3, 5, 7, and 11 were determined in accordance with a previously reported method25. This method used a Dynamic Thermal Stripper (Environchem, Kemblesville, Pa.) to sparge insecticides from 50 μl of serum. The insecticides were collected on Tenax solid sorbent and subsequently thermally desorbed with a Unacon 810 (Environchem, Kemblesville, Pa.) into a HP 5890 gas chromatograph (Hewlett Packard, Palo Alto, Calif.) equipped with a SPB-608 30 M, fused silica capillary column (J & W Scientific, Folsom, Calif.) and an electron capture detector. Levels of insecticides in serum stored at −75° C. were determined by comparing responses to standard curves constructed from certified standards (Ultra Scientific, Kingstown, R.I.) spiked into a composite sample consisting of serum from 3 subjects, previously determined to have low levels of each insecticide. For consistency, each patient's samples were analyzed during the same day by postburn day (PBD 1, 3, 7, and 11). The detection limit for HE and OC was 76 and 56 pg/mL, respectively. A reference serum sample pooled from 3 patients having medium levels of each insecticide was measured 1-2 times during each day of analyses. […] Serum cholesterol and triglyceride concentrations were determined using Instrumentation Laboratory reagents and analyzed on a Monarch Clinical Chemistry System (Instrumentation Laboratories, Inc., Lexington, Mass.).

[4] = system: PMNs; conditions: for decrease in DCFH oxidation: 10^−4 M oxidant; for increase in DCFH oxidation over control levels: 10^−5 M oxidant, 30 min
[5] = system: PMNs; assay: Propidium iodide staining of oxidant-treated PMNs (cell membrane integrity); conditions: oxidant levels ≧10^−7 M
[6] = system: PMNs; assay: Heme protein effect on DCFH oxidation in unstimulated, LPS and TNFα-, and PMA-stimulated PMNs, with or without NOS inhibitors, SOD or antioxidants; assay type: cell-based, human; conditions: PMA-stimulated PMNs with arginine
Description: DCFH-loaded PMNs were incubated with and without N-methyl-L-arginine (L-NMMA; 5 mM; Calbiochem, San Diego, Calif.) and heme proteins (0.3-1000 μg/mL) at 37 ° C. for 10 minutes. […] In unstimulated and LPS and TNFα -stimulated PMNs, the treatments were oxyMb, or oxyMb+L-NMMA (5 mM). […] RBC cell membranes were ruptured using a micro-ultrasonic cell disrupter, Kontes, Janke and Kukel Gmbh and CO. (Stauten, Germany). […] OxyMb was prepared by mixing excess sodium dithionite with Mb for 1 h and inorganic sulfur compounds were removed by dialyzing in HBSS buffer for 3 h. Percent iron in the ferric state in non-dithionite treated oxyMb or oxyHb was not assessed. […] […] cross-linked Hb was a gift from Walter Reed Army Institute of Research. […] Also, various concentrations of bovine liver Cu, Zn SOD (30-10,000 U/mL; 8-2640 μg/mL) and 30 μg/mL oxyMb were incubated with PMA-stimulated PMNs pretreated with and without L-NMMA. Flow cytometric measurements of oxidant-induced DCF fluorescence were performed as described above.

[7] = system: PMNs; assay: HE-induced DNA strand breaks in PMNs (dUTP nick end labeling); assay type: cell-based, human; conditions: for effect on HE-induced DNA strand breaks: at HE-induced peak values (3-6 nM)
Description: HE-induced DNA strand breaks in PMNs were measured by flow cytometry using the tdt-mediated dUTP nick end labeling assay, In Situ Cell Death Detection Kit (Boehringer Mannheim, Indianapolis, Ind.) according to manufacturer's instructions. PMNs were incubated with L-NMMA, 17β-E2 receptor antagonists, TNFα, and varying concentrations of HE as described in the above HE-induced DCFH oxidation experiments with the exception that HE incubation time was 2 h instead of 40 min.
In Vitro measurements of oxidant production and cellular damage.

[8] = system: PMNs; assay: HE and 17β-E2 effects on intracellular oxidants (NO) in PMNs, DCFH oxidation; assay type: cell-based, human; conditions: for effect on HE-induced intracellular oxidants (NO): ICI 182,780 0.1 nM
Description: HE effects on intracellular levels of oxidants in PMNs were measured using a previously reported cytofluorometric procedure.
(§4) The purity of PMNs and lymphocytes was greater than 88% and 95%, respectively, and their viability, as determined by trypan blue-exclusion, was greater than 90%.

[9] = system: lymphocytes; assay: HE effect on lymphocyte membrane integrity in mixed PMN/lymphocyte preparation (propidium iodide)
Description: HE effects on surrounding lymphocyte membrane integrity mediated by PMN-derived NO were determined by cytofluorometric measurements of intracellular propidium iodide levels in a mixed PMN/lymphocyte preparation using 100,000 lymphocytes and PMN/lymphocyte ratios of 0/1, 2/1, 4/1, 10/1). For comparison some aliquots of PMNs were loaded with L-NMMA (5 mM) or 2-(4-carboxyphenyl)-4,4,5,5-tetramethyl imidazoline-1-oxyl-3-oxide (carboxy-PTIO) (5 mM) (Calbiochem, La Jolla, Calif.), a NO scavenger, prior to incubating leukocytes with HE (1 nM) for 40 min.
as §4

[10] = system: PMNs; assay: Heme protein effect on DCFH oxidation in unstimulated, LPS and TNFα-, and PMA-stimulated PMNs, with or without NOS inhibitors, SOD or antioxidants; assay type: cell-based, human; conditions: PMA-stimulated PMNs; L-NMMA 5 mM, L-NIO 5 mM, glutathione 25 μM and ascorbate 25 μM, human SOD 300 U/mL
[11] = TNFα 10 ng/mL added to HE-treated PMNs

## C[C@]12CC[C@@H]3c4ccc(O)cc4CC[C@H]3[C@@H]1CC[C@@H]2O [17β-E2, 17β-estradiol]
[1]; MNCs, after 1 h
  dampening effect on oxidant production: 65%
[2]
  effect on oxidants in PMNs: no effect on oxidants

## ClC(Cl)=C(c1ccc(Cl)cc1)c1ccc(Cl)cc1 [DDE]
[3]; nonsurvivors, by PBD 11
  increase of mean serum level: 2.5 times
  mean serum level: 3667 pg/mL and 183 nM

## CCN(CC)/[N+]([O-])=N/O.CCNCC [DEANO, diethylamine nitric oxide]
[4]
  decrease in DCFH oxidation: approximately 25%
  increase in DCFH oxidation over control levels: 25 fold
[5]
  PMNs staining positive for propidium iodide: 87%

## O.O.O.O.[Cl][Fe][Cl] [FeCl2.4H2O, reference compound]
[6]
  effect on DCFH oxidation: produced a decrease in DCFH oxidation above 30 μg/mL

## OO [H2O2, hydrogen peroxide]
[4]
  decrease in DCFH oxidation: approximately 25%
  increase in DCFH oxidation over control levels: 25 fold
[5]
  PMNs staining positive for propidium iodide: 87%

## ClC1=C(Cl)C2(Cl)C3C4OC4C(Cl)C3C1(Cl)C2(Cl)Cl (stereo not drawn) [HE]
[3]
  mean peak serum levels: 215 pg/ml and 0.55 nM
  mean peak serum levels higher than in surviving patients: approximately 90%
[7]; 2 h incubation
  HE concentration of peak response of DNA strand breaks, Gaussian curve: approximately 5 nM
[7]; co-incubation with TNFα
  HE concentration of peak response of DNA strand breaks, with TNFα: approximately 0.3 nM
[8]; co-incubation with TNFα 10 ng/mL
  HE concentration of peak response of intracellular oxidants, with TNFα: approximately 0.1 nM
[9]; HE 1 nM, PMN/lymphocyte ratios above 2
  effect on cell membrane damage in lymphocytes: increased cell membrane damage in the lymphocytes

## C[C@]12CC[C@@H]3c4ccc(O)cc4C[C@@H](CCCCCCCCC[S+]([O-])CCCC(F)(F)C(F)(F)F)[C@H]3[C@@H]1CC[C@@H]2O (stereo partly drawn) [ICI 182,780, reference compound]
[7]
  effect on HE-induced DNA strand breaks: nonsignificant trend for attenuating HE-induced DNA strand breaks
[8]; L-NMMA 5 mM, tamoxifen 200 nM
  effect on HE-induced intracellular oxidants (NO): completely eliminated the HE-induced increase in NO

## CC(=N)NCCCC[C@H](N)C(=O)O [L-NIL, L-N^6-(-1-Iminoethyl)lysine]
[1]; L-NIL 10 μM
  effect on oxidants in activated MNCs: negligible effects on activated MNCs and PMNs
[2]; L-NIL 10 μM
  effect on oxidants in activated PMNs: negligible effects on activated MNCs and PMNs

## ClC1=C(Cl)[C@]2(Cl)[C@H]3[C@H]([C@H](Cl)[C@]4(Cl)O[C@H]34)[C@@]1(Cl)C2(Cl)Cl [OC]
[3]
  mean peak serum levels: 677 pg/ml and 1.59 nM
  mean peak serum levels higher than in surviving patients: approximately 90%

## CC(=O)[C@H]1CC[C@H]2[C@@H]3CCC4=CC(=O)CC[C@]4(C)[C@H]3CC[C@]12C [P4, progesterone]
[1]; MNCs, after 1 h
  dampening effect on oxidant production: 0%
[2]
  effect on oxidants in PMNs: no effect on oxidants

## CC1(C)N([O])C(c2ccc(C(=O)O)cc2)=[N+]([O-])C1(C)C [PTIO, 2-(4-carboxyphenyl)-4,4,5,5-tetramethyl imidazoline-1-oxyl-3-oxide, reference compound]
[9]; co-incubation with HE 1 nM
  effect on HE-induced cell membrane damage in lymphocytes: attenuated the HE-induced cell membrane damage in the lymphocytes

## C[C@]12CCC(=O)C=C1CC[C@@H]1[C@@H]2[C@@H](O)C[C@@]2(C)[C@H]1CC[C@]2(O)C(=O)CO [cortisol]
[1]; 5 h versus 1 h of stimulation
  time dependence of oxidant reduction in MNCs: reduced oxidant levels in MNCs to a greater extent after 5 h as compared to 1 h of stimulation
[1]; MNCs, after 1 h
  dampening effect on oxidant production: 20%
[2]
  effect on oxidants in PMNs: modest trend for reducing oxidant levels after 5 h

## CC/C(=C(\c1ccccc1)c1ccc(OCCN(C)C)cc1)c1ccccc1 [tamoxifen, reference compound]
[7]
  effect on HE-induced DNA strand breaks: nonsignificant trend for attenuating HE-induced DNA strand breaks
[8]; L-NMMA 5 mM, tamoxifen 200 nM
  effect on 17β-E2-induced intracellular oxidants (NO): completely inhibited the 17β-E2-induced NO levels
  effect on HE-induced intracellular oxidants (NO): completely eliminated the HE-induced increase in NO

## TNFα
[7]; TNFα added to HE
  increase in amplitude of HE DNA strand break Gaussian curve: 445%
  left shift of HE DNA strand break Gaussian curve: 10 fold
[8]; [11]
  increase in amplitude of HE intracellular oxidant Gaussian curve: 60%
  left shift of HE intracellular oxidant Gaussian curve: 10 fold

## hemoglobin: human hemoglobin (100 μg/mL)
[1]; MNCs, after 1 h, data not shown
  increase of mean oxidized DCF over unstimulated background: 41%
[1]; MNCs, after 5 h
  increase of mean intracellular oxidized DCF over unstimulated background: 259%
[2]; PMNs, after 1 h, data not shown
  increase of mean oxidized DCF over unstimulated background: 172%
[2]; PMNs, after 5 h
  increase of mean intracellular oxidized DCF over unstimulated background: 197%

## human erythrocyte Cu, Zn SOD: superoxide scavenger, superoxide dismutase from human erythrocytes
[10]
  effect on oxyMb-induced DCFH oxidation: increased oxyMb induced-DCFH oxidation

## oxyhemoglobin [oxyHb]
[6]
  less efficient than oxyMb in inducing DCFH oxidation: 20-40%
